# According to patent US20250222146A1, “Radiopharmaceuticals Targeting Somatostatin Receptor 2 and Uses Thereof” (RayzeBio, Inc., priority 2023, published 2025):
# pKi: −log10 of the molar value. Numbered stars: 1 amine (or outer) side, 2 acyl side, 3 side chain; on linkers, the order of the positions; unused ones are H or OH. Square brackets hold non-standard residues; d marks the D form. Side chains are listed from the residue outwards. Peptide text beside a SMILES is read from it. * marks the point of attachment. ξ: configuration not given here. DOTA(Lu)NH(CH2)6NHCOCH2 = O=C(CN1CCN2CCN3CCN(CC1)CC(=O)[O][Lu]([O]C(=O)C2)[O]C(=O)C3)NCCCCCCNC(=O)C*; DOTA(Lu) = O=C1CN2CCN3CCN(CC(=O)*)CCN(CC2)CC(=O)[O][Lu]([O]1)[O]C(=O)C3; X5 = O=C(CN1CCN2CCN3CCN(CC1)CC(=O)[O][Lu]([O]C(=O)C2)[O]C(=O)C3)NCC*; Ala(piperidin-4-yl) = O=C([C@H](CC1CCN([*:3])CC1)N[*:1])[*:2]; dTrp(βS-Me) = C[C@@H](c1c[nH]c2ccccc12)[C@@H](N)C(=O)O; dTrp(5-OMe) = COc1ccc2[nH]cc(C[C@@H](N)C(=O)O)c2c1; dTrp(5-Cl) = N[C@H](Cc1c[nH]c2ccc(Cl)cc12)C(=O)O; dTrp(5-Me) = Cc1ccc2[nH]cc(C[C@@H](N)C(=O)O)c2c1; dTrp(6-Cl) = N[C@H](Cc1c[nH]c2cc(Cl)ccc12)C(=O)O; Tyr(Ph) = N[C@@H](Cc1ccc(Oc2ccccc2)cc1)C(=O)O; NOTA = O=C(O)CN1CCN(CC(=O)O)CCN(CC(=O)*)CC1; dTpi = O=C(O)[C@H]1Cc2c([nH]c3ccccc23)CN1; Phe(3-OMe) = COc1cccc(C[C@H](N)C(=O)O)c1; Dip = N[C@H](C(=O)O)C(c1ccccc1)c1ccccc1; X2 = O=C([C@H](CCC1CNC1)N[*:1])[*:2]; Lys(5ξ-OH) = NCC(O)CC[C@H](N)C(=O)O; 4Pal = N[C@@H](Cc1ccncc1)C(=O)O; Cha = N[C@@H](CC1CCCCC1)C(=O)O; Lys(Me) = CNCCCC[C@H](N)C(=O)O; X13 = NCCCCN(N[*:1])C(=O)[*:2]; NMehCys = CN[C@@H](CCS)C(=O)O; NMeK = CN[C@@H](CCCCN)C(=O)O; NMeDap = CN[C@@H](CN)C(=O)O; NMeS = CN[C@@H](CO)C(=O)O; Ahx = NCCCCCC(=O)O
# Target: SSTR2 (Homo sapiens, UniProt P30874)
# Sequence (P30874 whole entry): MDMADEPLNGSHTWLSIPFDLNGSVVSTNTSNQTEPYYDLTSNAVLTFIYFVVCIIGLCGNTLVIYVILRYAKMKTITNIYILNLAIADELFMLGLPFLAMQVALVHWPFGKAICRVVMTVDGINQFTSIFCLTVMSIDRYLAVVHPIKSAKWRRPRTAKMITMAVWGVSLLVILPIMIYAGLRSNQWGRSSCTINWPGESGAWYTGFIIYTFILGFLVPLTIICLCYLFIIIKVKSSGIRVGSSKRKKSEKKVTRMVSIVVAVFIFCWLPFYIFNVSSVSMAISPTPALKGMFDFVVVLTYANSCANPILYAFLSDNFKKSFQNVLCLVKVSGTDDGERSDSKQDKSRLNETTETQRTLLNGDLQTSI
# Assay: SSTR binding affinity by radioligand binding competition assay ([125I]-Tyr11-Somatostatin, membrane extracts)
# Conditions: radioligand competition, [125I]-Tyr11-Somatostatin 0.1 nM, membrane extracts; Ki from IC50 by Cheng Prusoff
row,SMILES,SSTR2 Ki
1,COc1ccc2[nH]cc(C[C@H]3NC(=O)[C@H](Cc4ccc(O)cc4)NC(=O)[C@H](CCSCC(=O)NCCCCCCNC(=O)CN4CCN5CCN6CCN(CC4)CC(=O)[O][Lu]([O]C(=O)C5)[O]C(=O)C6)N(C)C(=O)[C@H](Cc4ccccc4)NC(=O)[C@H]([C@@H](C)O)NC(=O)[C@H](CC4CCNCC4)NC3=O)c2c1 [RB-0006076] (cyclo(F[NMehCys](DOTA(Lu)NH(CH2)6NHCOCH2)Y[dTrp(5-OMe)][Ala(piperidin-4-yl)]T)),FALSE

# Same assay, conditions: radioligand competition, [125I]-Tyr11-Somatostatin 0.1 nM, membrane extracts; Ki from IC50 by Cheng Prusoff; read-out: SSTR2 Ki
row,SMILES,pKi
1,Cc1ccc2[nH]cc(C[C@H]3NC(=O)[C@H](Cc4ccc(O)cc4)NC(=O)[C@H](CCSCC(=O)NCCCCCCNC(=O)CN4CCN5CCN6CCN(CC4)CC(=O)[O][Lu]([O]C(=O)C5)[O]C(=O)C6)N(C)C(=O)[C@H](Cc4ccccc4)NC(=O)[C@H]([C@@H](C)O)NC(=O)[C@H](CC4CCNCC4)NC3=O)c2c1 [RB-0006074] (cyclo(F[NMehCys](DOTA(Lu)NH(CH2)6NHCOCH2)Y[dTrp(5-Me)][Ala(piperidin-4-yl)]T)),8.00 to 8.48
2,C[C@@H](O)[C@@H]1NC(=O)[C@H](CC2CCNCC2)NC(=O)[C@@H](Cc2c[nH]c3ccc(Cl)cc23)NC(=O)[C@H](Cc2ccc(O)cc2)NC(=O)[C@H](CCSCC(=O)NCCCCCCNC(=O)CN2CCN3CCN4CCN(CC2)CC(=O)[O][Lu]([O]C(=O)C3)[O]C(=O)C4)N(C)C(=O)[C@H](Cc2ccccc2)NC1=O [RB-0006075] (cyclo(F[NMehCys](DOTA(Lu)NH(CH2)6NHCOCH2)Y[dTrp(5-Cl)][Ala(piperidin-4-yl)]T)),8.48 to 9.00
3,C[C@@H](O)[C@@H]1NC(=O)[C@H](CC2CCNCC2)NC(=O)[C@@H]([C@@H](C)c2c[nH]c3ccccc23)NC(=O)[C@H](Cc2ccc(O)cc2)NC(=O)[C@H](COCCNC(=O)CN2CCN3CCN4CCN(CC2)CC(=O)[O][Lu]([O]C(=O)C3)[O]C(=O)C4)N(C)C(=O)[C@H](Cc2ccccc2)NC1=O [RB-0006095] (cyclo(F[NMeS](X5)Y[dTrp(βS-Me)][Ala(piperidin-4-yl)]T)),> 9.00
4,C[C@@H](O)[C@@H]1NC(=O)[C@H](CCC2CNC2)NC(=O)[C@@H]([C@@H](C)c2c[nH]c3ccccc23)NC(=O)[C@H](Cc2ccc(O)cc2)NC(=O)[C@H](CCCCNC(=O)CN2CCN3CCN4CCN(CC2)CC(=O)[O][Lu]([O]C(=O)C3)[O]C(=O)C4)N(C)C(=O)[C@H](Cc2ccccc2)NC1=O [RB-0006128] (cyclo(F[NMeK](DOTA(Lu))Y[dTrp(βS-Me)][X2]T)),> 9.00
5,COc1ccc(C[C@@H]2NC(=O)[C@H](CCCCNC(=O)CN3CCN4CCN5CCN(CC3)CC(=O)[O][Lu]([O]C(=O)C4)[O]C(=O)C5)N(C)C(=O)[C@H](Cc3ccccc3)NC(=O)[C@H]([C@@H](C)O)NC(=O)[C@H](CC3CCNCC3)NC(=O)[C@@H]([C@@H](C)c3c[nH]c4ccccc34)NC2=O)cc1 [RB-0006139] (cyclo(F[NMeK](DOTA(Lu))Y(Me)[dTrp(βS-Me)][Ala(piperidin-4-yl)]T)),7.00 to 7.48
6,C[C@@H](O)[C@@H]1NC(=O)[C@H](CC2CCNCC2)NC(=O)[C@@H]([C@@H](C)c2c[nH]c3ccccc23)NC(=O)[C@H](Cc2ccc(O)cc2)NC(=O)[C@H](CNC(=O)[C@H](CC(=O)O)NC(=O)CCCCCNC(=O)CN2CCN3CCN4CCN(CC2)CC(=O)[O][Lu]([O]C(=O)C3)[O]C(=O)C4)N(C)C(=O)[C@H](Cc2ccccc2)NC1=O [RB-0006158] (cyclo(F[NMeDap]([Asp-Ahx-DOTA(Lu)])Y[dTrp(βS-Me)][Ala(piperidin-4-yl)]T)),8.48 to 9.00
7,C[C@@H](O)[C@@H]1NC(=O)[C@H](CC2CCNCC2)NC(=O)[C@@H]([C@@H](C)c2c[nH]c3ccccc23)NC(=O)[C@H](Cc2ccc(O)cc2)NC(=O)[C@H](CNC(=O)[C@H](CC(=O)O)NC(=O)CN2CCN3CCN4CCN(CC2)CC(=O)[O][Lu]([O]C(=O)C3)[O]C(=O)C4)N(C)C(=O)[C@H](Cc2ccccc2)NC1=O [RB-0006160] (cyclo(F[NMeDap]([Asp-DOTA(Lu)])Y[dTrp(βS-Me)][Ala(piperidin-4-yl)]T)),7.48 to 8.00
8,C[C@@H](O)[C@@H]1NC(=O)[C@H](CC2CCNCC2)NC(=O)[C@@H]([C@@H](C)c2c[nH]c3ccccc23)NC(=O)[C@H](Cc2ccc(O)cc2)NC(=O)[C@H](CCCCNC(=O)CN2CCN3CCN4CCN(CC2)CC(=O)[O][Lu]([O]C(=O)C3)[O]C(=O)C4)N(C)C(=O)[C@H](CC2CCCCC2)NC1=O [RB-0006162] (cyclo([Cha][NMeK](DOTA(Lu))Y[dTrp(βS-Me)][Ala(piperidin-4-yl)]T)),8.48 to 9.00
9,C[C@@H](O)[C@@H]1NC(=O)[C@H](CC2CCNCC2)NC(=O)[C@@H]([C@@H](C)c2c[nH]c3ccccc23)NC(=O)[C@H](Cc2ccc(O)cc2)NC(=O)[C@H](CCCCNC(=O)CN2CCN3CCN4CCN(CC2)CC(=O)[O][Lu]([O]C(=O)C3)[O]C(=O)C4)N(C)C(=O)[C@H](CO)NC1=O [RB-0006166] (cyclo([NMeK](DOTA(Lu))Y[dTrp(βS-Me)][Ala(piperidin-4-yl)]TS)),7.00 to 7.48
10,C[C@@H](O)[C@@H]1NC(=O)[C@H](CC2CCNCC2)NC(=O)[C@@H]([C@@H](C)c2c[nH]c3ccccc23)NC(=O)[C@H](Cc2ccc(O)cc2)NC(=O)[C@H](CCCCNC(=O)CN2CCN3CCN4CCN(CC2)CC(=O)[O][Lu]([O]C(=O)C3)[O]C(=O)C4)N(C)C(=O)[C@H](Cc2ccncc2)NC1=O [RB-0006170] (cyclo([4Pal][NMeK](DOTA(Lu))Y[dTrp(βS-Me)][Ala(piperidin-4-yl)]T)),8.00 to 8.48
11,CNCCCC[C@@H]1NC(=O)[C@@H]([C@@H](C)c2c[nH]c3ccccc23)NC(=O)[C@H](Cc2ccc(O)cc2)NC(=O)[C@H](CCCCNC(=O)CN2CCN3CCN4CCN(CC2)CC(=O)[O][Lu]([O]C(=O)C3)[O]C(=O)C4)N(C)C(=O)[C@H](Cc2ccccc2)NC(=O)[C@H]([C@@H](C)O)NC1=O [RB-0006174] (cyclo(F[NMeK](DOTA(Lu))Y[dTrp(βS-Me)][Lys(Me)]T)),> 9.00
12,C[C@@H](O)[C@@H]1NC(=O)[C@H](CC2CCNCC2)NC(=O)[C@@H](Cc2c[nH]c3cc(Cl)ccc23)NC(=O)[C@H](Cc2ccc(O)cc2)NC(=O)[C@H](CCSCC(=O)NCCCCCCNC(=O)CN2CCN3CCN4CCN(CC2)CC(=O)[O][Lu]([O]C(=O)C3)[O]C(=O)C4)N(C)C(=O)[C@H](Cc2ccccc2)NC1=O [RB-0006189] (cyclo(F[NMehCys](DOTA(Lu)NH(CH2)6NHCOCH2)Y[dTrp(6-Cl)][Ala(piperidin-4-yl)]T)),8.48 to 9.00
13,COc1cccc(C[C@@H]2NC(=O)[C@H](CCCCNC(=O)CN3CCN4CCN5CCN(CC3)CC(=O)[O][Lu]([O]C(=O)C4)[O]C(=O)C5)N(C)C(=O)[C@H](Cc3ccccc3)NC(=O)[C@H]([C@@H](C)O)NC(=O)[C@H](CC3CCNCC3)NC(=O)[C@@H]([C@@H](C)c3c[nH]c4ccccc34)NC2=O)c1 [RB-0006209] (cyclo(F[NMeK](DOTA(Lu))[Phe(3-OMe)][dTrp(βS-Me)][Ala(piperidin-4-yl)]T)),8.48 to 9.00
14,C[C@@H](O)[C@@H]1NC(=O)[C@H](CC2CCNCC2)NC(=O)[C@H]2Cc3c([nH]c4ccccc34)CN2C(=O)[C@H](Cc2ccc(O)cc2)NC(=O)[C@H](CCCCNC(=O)CN2CCN3CCN4CCN(CC2)CC(=O)[O][Lu]([O]C(=O)C3)[O]C(=O)C4)N(C)C(=O)[C@H](Cc2ccccc2)NC1=O [RB-0006213] (cyclo(F[NMeK](DOTA(Lu))Y[dTpi][Ala(piperidin-4-yl)]T)),7.00 to 7.48
15,C[C@@H](O)[C@@H]1NC(=O)[C@H](CC2CCNCC2)NC(=O)[C@@H]([C@@H](C)c2c[nH]c3ccccc23)NC(=O)[C@H](Cc2ccc(O)cc2)NC(=O)[C@H](CNC(=O)[C@H](CCC(=O)O)NC(=O)CN2CCN3CCN4CCN(CC2)CC(=O)[O][Lu]([O]C(=O)C3)[O]C(=O)C4)N(C)C(=O)[C@H](Cc2ccccc2)NC1=O [RB-0006215] (cyclo(F[NMeDap]([Glu-DOTA(Lu)])Y[dTrp(βS-Me)][Ala(piperidin-4-yl)]T)),7.48 to 8.00
16,C[C@@H](O)[C@@H]1NC(=O)N(CCCCN)NC(=O)[C@@H](Cc2c[nH]c3ccccc23)NC(=O)[C@H](Cc2ccc(O)cc2)NC(=O)[C@H](CCCCNC(=O)CN2CCN3CCN4CCN(CC2)CC(=O)[O][Lu]([O]C(=O)C3)[O]C(=O)C4)N(C)C(=O)[C@H](Cc2ccccc2)NC1=O [RB-0006217] (cyclo(F[NMeK](DOTA(Lu))Y[dW][X13]T)),> 9.00
17,C[C@@H](O)[C@@H]1NC(=O)[C@H](CC2CCNCC2)NC(=O)[C@@H]([C@@H](C)c2c[nH]c3ccccc23)NC(=O)[C@H](Cc2ccc(Oc3ccccc3)cc2)NC(=O)[C@H](CCCCNC(=O)CN2CCN3CCN4CCN(CC2)CC(=O)[O][Lu]([O]C(=O)C3)[O]C(=O)C4)N(C)C(=O)[C@H](Cc2ccccc2)NC1=O [RB-0006237] (cyclo(F[NMeK](DOTA(Lu))[Tyr(Ph)][dTrp(βS-Me)][Ala(piperidin-4-yl)]T)),8.00 to 8.48
18,C[C@@H](O)[C@@H]1NC(=O)[C@H](CC2CCNCC2)NC(=O)[C@@H]([C@@H](C)c2c[nH]c3ccccc23)NC(=O)[C@H](C(c2ccccc2)c2ccccc2)NC(=O)[C@H](CCCCNC(=O)CN2CCN3CCN4CCN(CC2)CC(=O)[O][Lu]([O]C(=O)C3)[O]C(=O)C4)N(C)C(=O)[C@H](Cc2ccccc2)NC1=O [RB-0006239] (cyclo([Dip][dTrp(βS-Me)][Ala(piperidin-4-yl)]TF[NMeK](DOTA(Lu)))),7.48 to 8.00
19,C[C@@H](O)[C@@H]1NC(=O)[C@H](CC2CCNCC2)NC(=O)[C@@H]([C@@H](C)c2c[nH]c3ccccc23)NC(=O)[C@H](Cc2ccc(O)cc2)NC(=O)[C@H](CCCCNC(=O)CN2CCN(CC(=O)O)CCN(CC(=O)O)CC2)N(C)C(=O)[C@H](Cc2ccccc2)NC1=O [RB-0006286] (cyclo([NMeK](NOTA)Y[dTrp(βS-Me)][Ala(piperidin-4-yl)]TF)),8.48 to 9.00
20,C[C@@H](O)[C@@H]1NC(=O)[C@H](CCC(O)CN)NC(=O)[C@@H](Cc2c[nH]c3ccccc23)NC(=O)[C@H](Cc2ccc(O)cc2)NC(=O)[C@H](CCSCC(=O)NCCCCCCNC(=O)CN2CCN3CCN4CCN(CC2)CC(=O)[O][Lu]([O]C(=O)C3)[O]C(=O)C4)N(C)C(=O)[C@H](Cc2ccccc2)NC1=O (stereo partly drawn) [RB-0006317] (cyclo(F[NMehCys](DOTA(Lu)NH(CH2)6NHCOCH2)Y[dW][Lys(5ξ-OH)]T)),> 9.00
